For this data set, the system named is male Wistar rats. The experiment in a line: Cold immersion tail withdrawal latency after intraperitoneal dosing. Format: in vivo, rat. The following applies: for Trial 1 Latency (s), post-treatment cold immersion response / Trial 2 Latency (s), post-treatment cold immersion response / Trial 3 Latency (s), post-treatment cold immersion response: from 30 min post-dose, -20° C bath. As for the experimental part:
Three male Wistar rats at 8 weeks of age (Taconic Farms, Germantown, N.Y.) were utilized in the experiment. Each rat was grasped firmly, while the distal half of its tail was immersed in a liquid bath at a temperature of −20° C. Latency periods (in seconds) were measured from the time that tails were immersed to the time that the rat removed its tail from the liquid. Prior to dosing, rats were given three trials, approximately ten minutes apart. […] Post-dose trials were also approximately ten minutes apart. Animals were examined for acute adverse effects to both the cold liquid bath and the test article.

Residues, ends and D or L forms follow the SMILES beside them.

As to `CCOC(=O)C1CCCN1C(=O)C(N)Cc1ccc(O)cc1` (stereo not drawn) [Tyr-Pro-Ethyl] (H-Tyr-Pro-OEt; configuration not given here), for the setting “animal 1, 1 mg i.p.”, the “Mean latency of three trials, post-treatment cold immersion response” value (“Mean latency of three trials” for short) was 15.6 s; the “Post-treatment mean with longest latency period eliminated” value (“Post-treatment mean” for short) turned out to be 12.4; the “Trial 1 Latency (s), post-treatment cold immersion response” value (from here on “Trial 1 Latency (s)”) is 13.2 s; the “Trial 2 Latency (s), post-treatment cold immersion response” value (“Trial 2 Latency (s)” below) amounted to 22.1 s. For the same molecule, for the setting “animal 1, 1 mg i.p.”, the “Trial 3 Latency (s), post-treatment cold immersion response” value (shortened to “Trial 3 Latency (s)”) was 11.5 s. Besides, where the note is “animal 2, 2 mg i.p.”, the “Mean latency of three trials” value stood at 7.2 s; the “Post-treatment mean” value came to 4.7; the “Trial 1 Latency (s)” value was determined as 4.7 s; the “Trial 2 Latency (s)” value was determined as 4.7 s. Besides, the “Trial 3 Latency (s)” value (animal 2, 2 mg i.p.) was 12.2 s. In addition, under “animal 3, 0.5 mg i.p.”, the “Mean latency of three trials” value is reported as 7.2167 s; the “Post-treatment mean” value stood at 6.3; the “Trial 1 Latency (s)” value is on record as 6.45 s; the “Trial 2 Latency (s)” value was 6.2 s. Also, for the setting “animal 3, 0.5 mg i.p.”, the “Trial 3 Latency (s)” value was 9.0 s. Besides, the “Crossing of the BBB” value (rats, at the doses given (0.5, 1, 2 mg i.p.), inferred from latency data) is “able to cross the BBB”. Besides, the Hydrolysis by esterases result (rats, cerebrospinal fluid, inferred from latency data) was “hydrolyzed by esterases in the cerebrospinal fluid”. Moreover, under “rats, cold immersion, 0.5, 1, 2 mg i.p.”, the “Effect on sensitivity to noxious stimulus” value is listed as “increase sensitivity to noxious stimulus”.

For the origin of these results see US20130072438A1, “OPIOID PEPTIDE ESTERS AND METHODS OF USE” (The United States Government as represented by the …, priority 2011, published 2013).
